Assays:
[1] = molecular target: Tyrosine-protein kinase ITK/TSK (Homo sapiens) (UniProt Q08881); conditions: Compound concentration 1000.0 nM
[2] = molecular target: Histamine H2 receptor (Homo sapiens) (UniProt P25021); conditions: Compound concentration 10.0 uM
[3] = molecular target: Mitogen-activated protein kinase kinase kinase 7 (Homo sapiens) (UniProt O43318); conditions: Compound concentration 1000.0 nM
[4] = molecular target: Mitogen-activated protein kinase 7 (Homo sapiens) (UniProt Q13164); conditions: Compound concentration 1000.0 nM
[5] = test system: Receptor-type tyrosine-protein kinase FLT3 (Homo sapiens), P36888 [D835Y]; conditions: Compound concentration 1000.0 nM
[6] = molecular target: Ephrin type-A receptor 7 (Homo sapiens) (UniProt Q15375); conditions: Compound concentration 1000.0 nM
[7] = molecular target: Ephrin type-B receptor 4 (Homo sapiens) (UniProt P54760); conditions: Compound concentration 1000.0 nM
[8] = molecular target: TRAF2 and NCK-interacting protein kinase (Homo sapiens) (UniProt Q9UKE5); conditions: Compound concentration 1000.0 nM
[9] = test system: Serine/threonine-protein kinase B-raf (Homo sapiens), P15056 [V600E]; conditions: Compound concentration 1000.0 nM
[10] = molecular target: RAC-gamma serine/threonine-protein kinase (Homo sapiens) (UniProt Q9Y243); conditions: Compound concentration 1000.0 nM
[11] = molecular target: Dual specificity tyrosine-phosphorylation-regulated kinase 2 (Homo sapiens) (UniProt Q92630); conditions: Compound concentration 1000.0 nM
[12] = molecular target: Serine/threonine-protein kinase Nek4 (Homo sapiens) (UniProt P51957); conditions: Compound concentration 1000.0 nM
[13] = molecular target: Serine/threonine-protein kinase WNK1 (Homo sapiens) (UniProt Q9H4A3); conditions: Compound concentration 1000.0 nM
[14] = molecular target: Phosphatidylinositol 4-phosphate 5-kinase type-1 gamma (Homo sapiens) (UniProt O60331); conditions: Compound concentration 1000.0 nM
[15] = molecular target: Maternal embryonic leucine zipper kinase (Homo sapiens) (UniProt Q14680); conditions: Compound concentration 1000.0 nM
[16] = molecular target: Rho-associated protein kinase 1 (Homo sapiens) (UniProt Q13464); conditions: Compound concentration 1000.0 nM
[17] = molecular target: Tyrosine-protein kinase ABL1 (Homo sapiens) (UniProt P00519); conditions: Compound concentration 1000.0 nM
[18] = molecular target: MAP kinase-interacting serine/threonine-protein kinase 1 (Homo sapiens) (UniProt Q9BUB5); conditions: Compound concentration 1000.0 nM
[19] = test system: Hepatocyte growth factor receptor (Homo sapiens), P08581 [Y1235D]; conditions: Compound concentration 1000.0 nM
[20] = test system: Fibroblast growth factor receptor 3 (Homo sapiens), P22607 [G697C]; conditions: Compound concentration 1000.0 nM
[21] = molecular target: Fibroblast growth factor receptor 1 (Homo sapiens) (UniProt P11362); conditions: Compound concentration 1000.0 nM
[22] = molecular target: Activated CDC42 kinase 1 (Homo sapiens) (UniProt Q07912); conditions: Compound concentration 1000.0 nM
[23] = molecular target: Cyclin-dependent kinase 17 (Homo sapiens) (UniProt Q00537); conditions: Compound concentration 1000.0 nM
[24] = molecular target: Serine/threonine-protein kinase BRSK1 (Homo sapiens) (UniProt Q8TDC3); conditions: Compound concentration 1000.0 nM
[25] = molecular target: Tyrosine-protein kinase Fyn (Homo sapiens) (UniProt P06241); conditions: Compound concentration 1000.0 nM
[26] = molecular target: Serine/threonine-protein kinase 38 (Homo sapiens) (UniProt Q15208); conditions: Compound concentration 1000.0 nM
[27] = molecular target: Inhibitor of nuclear factor kappa-B kinase subunit beta (Homo sapiens) (UniProt O14920); conditions: Compound concentration 1000.0 nM
[28] = molecular target: Cytoplasmic tyrosine-protein kinase BMX (Homo sapiens) (UniProt P51813); conditions: Compound concentration 1000.0 nM
[29] = molecular target: LIM domain kinase 2 (Homo sapiens) (UniProt P53671); conditions: Compound concentration 1000.0 nM
[30] = molecular target: Calcium/calmodulin-dependent protein kinase type II subunit beta (Homo sapiens) (UniProt Q13554); conditions: Compound concentration 1000.0 nM
[31] = test system: ALK tyrosine kinase receptor (Homo sapiens), Q9UM73 [L1196M]; conditions: Compound concentration 1000.0 nM
[32] = molecular target: Cyclin-G-associated kinase (Homo sapiens) (UniProt O14976); conditions: Compound concentration 1000.0 nM
[33] = molecular target: Serine/threonine-protein kinase TAO1 (Homo sapiens) (UniProt Q7L7X3); conditions: Compound concentration 1000.0 nM
[34] = molecular target: Proto-oncogene tyrosine-protein kinase Src (Homo sapiens) (UniProt P12931); conditions: Compound concentration 1000.0 nM
[35] = test system: Epidermal growth factor receptor (Homo sapiens), P00533 [T790M]; conditions: Compound concentration 1000.0 nM
[36] = molecular target: Mitogen-activated protein kinase 13 (Homo sapiens) (UniProt O15264); conditions: Compound concentration 1000.0 nM
[37] = molecular target: D(2) dopamine receptor (Homo sapiens) (UniProt P14416); conditions: Compound concentration 10.0 uM
[38] = molecular target: Tyrosine-protein kinase TXK (Homo sapiens) (UniProt P42681); conditions: Compound concentration 1000.0 nM
[39] = molecular target: Receptor-interacting serine/threonine-protein kinase 2 (Homo sapiens) (UniProt O43353); conditions: Compound concentration 1000.0 nM
[40] = molecular target: Atypical kinase COQ8A, mitochondrial (Homo sapiens) (UniProt Q8NI60); conditions: Compound concentration 1000.0 nM
[41] = molecular target: RAC-beta serine/threonine-protein kinase (Homo sapiens) (UniProt P31751); conditions: Compound concentration 1000.0 nM
[42] = test system: Receptor-type tyrosine-protein kinase FLT3 (Homo sapiens), P36888 [N841I]; conditions: Compound concentration 1000.0 nM
[43] = molecular target: Serine/threonine-protein kinase STK11 (Homo sapiens) (UniProt Q15831); conditions: Compound concentration 1000.0 nM
[44] = molecular target: Serine/threonine-protein kinase Nek11 (Homo sapiens) (UniProt Q8NG66); conditions: Compound concentration 1000.0 nM
[45] = molecular target: Serine/threonine-protein kinase VRK2 (Homo sapiens) (UniProt Q86Y07); conditions: Compound concentration 1000.0 nM

Sequence of Serine/threonine-protein kinase TAO1 (Homo sapiens) (Q7L7X3 whole entry): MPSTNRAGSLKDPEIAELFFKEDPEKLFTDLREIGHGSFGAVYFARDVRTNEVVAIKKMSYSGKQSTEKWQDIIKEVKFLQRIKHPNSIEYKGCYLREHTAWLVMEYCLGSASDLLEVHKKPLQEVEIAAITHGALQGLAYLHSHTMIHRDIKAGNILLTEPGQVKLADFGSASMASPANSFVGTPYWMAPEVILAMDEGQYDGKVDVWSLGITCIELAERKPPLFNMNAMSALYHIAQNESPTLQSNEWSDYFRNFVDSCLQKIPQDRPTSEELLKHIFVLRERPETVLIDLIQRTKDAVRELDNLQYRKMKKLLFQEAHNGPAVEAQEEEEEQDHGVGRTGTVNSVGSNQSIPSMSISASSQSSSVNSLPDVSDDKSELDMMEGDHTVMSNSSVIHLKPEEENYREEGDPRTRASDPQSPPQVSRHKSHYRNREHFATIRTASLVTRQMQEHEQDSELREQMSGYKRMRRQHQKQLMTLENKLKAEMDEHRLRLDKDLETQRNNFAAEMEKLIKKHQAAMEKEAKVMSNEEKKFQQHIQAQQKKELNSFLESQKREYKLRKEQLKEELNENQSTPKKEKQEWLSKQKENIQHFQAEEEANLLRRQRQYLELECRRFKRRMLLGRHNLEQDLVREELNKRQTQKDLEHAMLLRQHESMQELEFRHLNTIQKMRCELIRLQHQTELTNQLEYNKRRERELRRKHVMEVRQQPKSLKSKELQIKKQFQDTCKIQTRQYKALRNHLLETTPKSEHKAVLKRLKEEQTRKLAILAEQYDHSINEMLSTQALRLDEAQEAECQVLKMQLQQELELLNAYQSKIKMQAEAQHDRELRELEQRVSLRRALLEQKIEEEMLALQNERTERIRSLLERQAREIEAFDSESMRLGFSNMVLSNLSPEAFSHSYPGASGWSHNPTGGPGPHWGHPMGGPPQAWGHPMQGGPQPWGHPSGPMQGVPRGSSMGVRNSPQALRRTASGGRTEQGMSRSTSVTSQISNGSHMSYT
Sequence of Activated CDC42 kinase 1 (Homo sapiens) (Q07912 whole entry, looked up): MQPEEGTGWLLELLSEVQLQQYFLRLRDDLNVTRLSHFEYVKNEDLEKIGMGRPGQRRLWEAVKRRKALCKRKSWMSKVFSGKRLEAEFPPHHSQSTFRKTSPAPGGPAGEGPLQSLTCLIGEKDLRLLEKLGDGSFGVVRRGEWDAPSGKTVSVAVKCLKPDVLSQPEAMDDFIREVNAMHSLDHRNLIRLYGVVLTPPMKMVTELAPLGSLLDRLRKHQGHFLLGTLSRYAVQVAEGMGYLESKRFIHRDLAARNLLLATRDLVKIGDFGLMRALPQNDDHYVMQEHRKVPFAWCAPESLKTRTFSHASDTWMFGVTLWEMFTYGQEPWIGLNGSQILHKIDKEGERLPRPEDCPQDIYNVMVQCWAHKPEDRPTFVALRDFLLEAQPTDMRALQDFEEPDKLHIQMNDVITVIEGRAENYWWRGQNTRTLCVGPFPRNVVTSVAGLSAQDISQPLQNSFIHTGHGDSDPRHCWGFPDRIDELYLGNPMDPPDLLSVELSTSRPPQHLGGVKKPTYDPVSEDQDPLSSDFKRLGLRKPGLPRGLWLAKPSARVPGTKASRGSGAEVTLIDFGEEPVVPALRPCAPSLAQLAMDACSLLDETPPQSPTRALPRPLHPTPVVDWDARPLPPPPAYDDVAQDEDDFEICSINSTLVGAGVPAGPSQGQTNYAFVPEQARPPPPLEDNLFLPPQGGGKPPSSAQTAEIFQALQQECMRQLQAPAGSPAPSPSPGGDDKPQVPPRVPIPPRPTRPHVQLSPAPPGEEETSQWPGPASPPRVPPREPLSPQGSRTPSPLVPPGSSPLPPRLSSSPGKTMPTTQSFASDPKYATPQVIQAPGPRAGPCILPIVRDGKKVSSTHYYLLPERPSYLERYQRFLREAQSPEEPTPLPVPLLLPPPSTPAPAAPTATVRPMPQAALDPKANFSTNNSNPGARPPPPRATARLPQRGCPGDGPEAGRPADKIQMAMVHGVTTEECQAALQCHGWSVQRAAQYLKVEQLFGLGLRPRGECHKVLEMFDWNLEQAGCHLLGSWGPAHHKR
Sequence of MAP kinase-interacting serine/threonine-protein kinase 1 (Homo sapiens) (Q9BUB5 whole entry, looked up): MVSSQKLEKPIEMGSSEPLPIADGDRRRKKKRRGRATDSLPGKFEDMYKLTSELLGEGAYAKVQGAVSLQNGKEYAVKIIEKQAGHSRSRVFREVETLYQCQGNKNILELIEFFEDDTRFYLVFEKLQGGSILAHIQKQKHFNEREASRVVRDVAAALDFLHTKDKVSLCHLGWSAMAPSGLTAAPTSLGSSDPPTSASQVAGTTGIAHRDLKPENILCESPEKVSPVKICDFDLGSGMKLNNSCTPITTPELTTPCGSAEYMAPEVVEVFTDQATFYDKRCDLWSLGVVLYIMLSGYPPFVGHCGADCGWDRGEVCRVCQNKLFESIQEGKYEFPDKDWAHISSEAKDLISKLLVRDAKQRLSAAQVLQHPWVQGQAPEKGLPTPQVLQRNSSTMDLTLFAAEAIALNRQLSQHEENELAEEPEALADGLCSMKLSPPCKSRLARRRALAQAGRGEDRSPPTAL
Sequence of Serine/threonine-protein kinase Nek11 (Homo sapiens) (Q8NG66 whole entry): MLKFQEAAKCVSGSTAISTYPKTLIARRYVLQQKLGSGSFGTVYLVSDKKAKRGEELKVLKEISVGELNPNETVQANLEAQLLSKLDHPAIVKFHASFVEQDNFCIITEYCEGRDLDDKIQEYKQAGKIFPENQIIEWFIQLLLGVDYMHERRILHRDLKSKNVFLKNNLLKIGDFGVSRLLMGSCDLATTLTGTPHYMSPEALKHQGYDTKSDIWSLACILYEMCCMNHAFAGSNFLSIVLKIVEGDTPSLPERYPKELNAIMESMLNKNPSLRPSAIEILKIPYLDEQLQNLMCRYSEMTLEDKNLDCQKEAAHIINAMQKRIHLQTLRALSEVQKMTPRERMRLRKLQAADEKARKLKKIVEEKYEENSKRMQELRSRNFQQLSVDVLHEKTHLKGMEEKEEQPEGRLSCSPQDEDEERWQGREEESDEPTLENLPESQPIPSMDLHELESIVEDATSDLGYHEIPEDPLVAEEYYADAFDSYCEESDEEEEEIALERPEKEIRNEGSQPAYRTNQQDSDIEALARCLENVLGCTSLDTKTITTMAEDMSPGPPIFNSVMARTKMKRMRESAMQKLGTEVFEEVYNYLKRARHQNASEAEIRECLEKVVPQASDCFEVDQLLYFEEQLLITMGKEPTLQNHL
Sequence of Mitogen-activated protein kinase 13 (Homo sapiens) (O15264 whole entry): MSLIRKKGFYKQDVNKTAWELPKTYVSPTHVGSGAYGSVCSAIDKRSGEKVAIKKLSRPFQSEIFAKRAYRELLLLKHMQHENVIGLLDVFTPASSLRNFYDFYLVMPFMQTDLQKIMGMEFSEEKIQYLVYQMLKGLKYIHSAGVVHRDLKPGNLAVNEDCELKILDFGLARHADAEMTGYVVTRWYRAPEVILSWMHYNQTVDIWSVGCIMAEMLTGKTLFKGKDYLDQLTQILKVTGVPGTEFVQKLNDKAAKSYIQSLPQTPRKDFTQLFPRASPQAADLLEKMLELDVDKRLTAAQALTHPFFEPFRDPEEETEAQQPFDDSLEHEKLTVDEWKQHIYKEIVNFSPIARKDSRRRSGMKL
Sequence of Cyclin-G-associated kinase (Homo sapiens) (O14976 whole entry): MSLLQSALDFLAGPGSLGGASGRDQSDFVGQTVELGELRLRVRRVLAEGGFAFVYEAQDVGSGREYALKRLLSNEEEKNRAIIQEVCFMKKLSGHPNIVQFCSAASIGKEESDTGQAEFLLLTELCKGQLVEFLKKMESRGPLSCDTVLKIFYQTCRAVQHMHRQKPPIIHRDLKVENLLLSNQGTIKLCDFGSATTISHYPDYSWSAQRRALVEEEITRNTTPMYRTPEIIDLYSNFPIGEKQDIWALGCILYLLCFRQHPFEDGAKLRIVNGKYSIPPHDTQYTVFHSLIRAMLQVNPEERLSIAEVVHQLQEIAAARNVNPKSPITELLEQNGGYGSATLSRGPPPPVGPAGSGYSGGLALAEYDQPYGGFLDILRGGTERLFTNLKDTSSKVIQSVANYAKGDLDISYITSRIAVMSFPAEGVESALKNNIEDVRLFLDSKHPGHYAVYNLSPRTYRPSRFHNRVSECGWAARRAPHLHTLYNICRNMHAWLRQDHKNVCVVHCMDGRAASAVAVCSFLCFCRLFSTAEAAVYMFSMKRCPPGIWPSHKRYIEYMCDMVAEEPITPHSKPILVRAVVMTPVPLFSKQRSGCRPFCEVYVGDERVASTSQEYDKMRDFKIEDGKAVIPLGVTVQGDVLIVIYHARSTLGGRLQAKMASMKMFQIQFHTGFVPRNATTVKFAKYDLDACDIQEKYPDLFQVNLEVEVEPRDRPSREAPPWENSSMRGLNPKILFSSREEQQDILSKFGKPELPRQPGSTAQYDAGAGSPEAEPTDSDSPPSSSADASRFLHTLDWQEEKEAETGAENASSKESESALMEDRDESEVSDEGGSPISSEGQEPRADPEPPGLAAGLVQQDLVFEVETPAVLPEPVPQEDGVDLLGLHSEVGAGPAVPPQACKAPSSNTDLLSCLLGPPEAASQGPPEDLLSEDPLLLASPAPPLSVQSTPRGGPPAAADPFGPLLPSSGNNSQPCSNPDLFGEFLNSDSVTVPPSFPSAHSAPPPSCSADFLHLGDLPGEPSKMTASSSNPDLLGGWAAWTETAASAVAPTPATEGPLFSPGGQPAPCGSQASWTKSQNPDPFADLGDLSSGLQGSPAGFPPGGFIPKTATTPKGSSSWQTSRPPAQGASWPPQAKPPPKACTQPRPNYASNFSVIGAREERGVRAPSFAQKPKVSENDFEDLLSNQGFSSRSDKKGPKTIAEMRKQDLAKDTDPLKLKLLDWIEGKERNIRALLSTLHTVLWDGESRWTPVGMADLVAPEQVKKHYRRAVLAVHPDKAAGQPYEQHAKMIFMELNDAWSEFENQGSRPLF

CC(=O)c1c(NS(C)(=O)=O)c2cc(-c3ccc(Cl)cc3)c(-c3ccc(Cl)cc3Cl)nc2n(C)c1=O [MRL-CB1-NC]
residual activity [1]: 97% | inhibition [2]: 13.8% | residual activity [3]: 83% | residual activity [4]: 92% | residual activity [5]: 95% | residual activity [6]: 100% | residual activity [7]: 92% | residual activity [8]: 93% | residual activity [9]: 88% | residual activity [10]: 91% | residual activity [11]: 93% | residual activity [12]: 100% | residual activity [13]: 88% | residual activity [14]: 100% | residual activity [15]: 100% | residual activity [16]: 85% | residual activity [17]: 92% | residual activity [18]: 100% | residual activity [19]: 95% | residual activity [20]: 100% | residual activity [21]: 97% | residual activity [22]: 92% | residual activity [23]: 100% | residual activity [24]: 99% | residual activity [25]: 92% | residual activity [26]: 77% | residual activity [27]: 98% | residual activity [28]: 100% | residual activity [29]: 91% | residual activity [30]: 100% | residual activity [31]: 97% | residual activity [32]: 100% | residual activity [33]: 92% | residual activity [34]: 100% | residual activity [35]: 64% | residual activity [36]: 97% | inhibition [37]: 2.43% | residual activity [38]: 100% | residual activity [39]: 96% | residual activity [40]: 100% | residual activity [41]: 100% | residual activity [42]: 100% | residual activity [43]: 100% | residual activity [44]: 79% | residual activity [45]: 100%

CC(=O)Nc1c(C(C)=O)c(=O)n(C)c2nc(-c3ccc(Cl)cc3Cl)c(-c3ccc(Cl)cc3)cc12 [NAPHTHYRIDINONE]
residual activity [1]: 100% | inhibition [2]: 6.71% | residual activity [3]: 100% | residual activity [4]: 100% | residual activity [5]: 100% | residual activity [6]: 100% | residual activity [7]: 100% | residual activity [8]: 100% | residual activity [9]: 100% | residual activity [10]: 100% | residual activity [11]: 100% | residual activity [12]: 100% | residual activity [13]: 100% | residual activity [14]: 100% | residual activity [15]: 100% | residual activity [16]: 100% | residual activity [17]: 81% | residual activity [18]: 100% | residual activity [19]: 100% | residual activity [20]: 100% | residual activity [21]: 100% | residual activity [22]: 100% | residual activity [23]: 100% | residual activity [24]: 85% | residual activity [25]: 100% | residual activity [26]: 93% | residual activity [27]: 100% | residual activity [28]: 100% | residual activity [29]: 100% | residual activity [30]: 100% | residual activity [31]: 100% | residual activity [32]: 100% | residual activity [33]: 89% | residual activity [34]: 100% | residual activity [35]: 100% | residual activity [36]: 100% | inhibition [37]: 5.73% | residual activity [38]: 100% | residual activity [39]: 100% | residual activity [40]: 100% | residual activity [41]: 100% | residual activity [42]: 100% | residual activity [43]: 43% | residual activity [44]: 100% | residual activity [45]: 100%

From ChEMBL document CHEMBL4507287, “Data for DCP probe MRL-650” (2021)
